“And” between values parts separate entries of the source, which are not always exact repeats. Identical values can stand only once.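 Compound exposure: 48 hours, 5 concentrations, 96-well plates. The concentration for 50% growth inhibition is given as GI50. TGI is the concentration that stops growth completely.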
Tests used:
Test in all cases: NCI anticancer screen, dose series, 48 h
[1] = tested on: CCRF-CEM leukemia
[2] = tested on: HCT-15 colon
[3] = tested on: HT29 colon
[4] = tested on: IGROV1 ovarian
[5] = tested on: K-562 leukemia
[6] = tested on: MALME-3M melanoma
[7] = tested on: MDA-MB-435
[8] = tested on: MDA-N
[9] = tested on: MOLT-4 leukemia
[10] = tested on: NCI-H23 lung
[11] = tested on: OVCAR-5 ovarian
[12] = tested on: SW-620 colon

Structure (SMILES) | TGI [1] | TGI [2] | TGI [3] [µM] | TGI [4] | TGI [5] | TGI [6] | TGI [7] [µM] | TGI [8] [µM] | TGI [9] | TGI [10] | TGI [11] | TGI [12] | GI50 [3] [µM] | GI50 [4] [µM] | GI50 [6] [µM] | GI50 [9] [µM] | GI50 [10] [µM] | GI50 [11] [µM] | GI50 [12] [µM]
CCOC(=O)c1nc2ccccc2nc1Nc1ccc(OC)c(OC)c1 | > 100 µM | > 100 µM | > 100 | > 100 µM | > 100 µM | > 100 µM | > 100 | > 100 | > 100 µM | > 100 µM | > 100 µM | – | – | – | – | – | – | – | –
COC(=O)C1c2c(c3ccccc3n2C(=O)OC)CCN2CCC1C(S(=O)(=O)c1ccccc1)C2=O (centres undefined) | > 100 µM | > 100 µM | > 100 | > 100 µM | > 100 µM | > 100 µM | > 100 | > 100 | > 100 µM | > 100 µM | > 100 µM | > 100 µM | – | – | – | – | – | – | –
CCCCOC(=O)NC(Nc1cccc(C(F)(F)F)c1)(C(F)(F)F)C(F)(F)F | > 100 µM | > 100 µM | > 100 | > 100 µM | > 100 µM | > 100 µM | > 100 | > 100 | > 100 µM | > 100 µM | > 100 µM | > 100 µM | – | – | – | – | – | – | –
Cc1cc(-c2nc3ccccc3s2)ccc1N | > 100 µM | > 89.3 µM | > 87.3 | > 100 µM | > 86 µM | > 81.5 µM | > 79.8 | > 83.6 | 82.2 µM | > 80.8 µM | 70.6 µM | > 100 µM | – | – | – | – | – | – | –
COc1cc(C)cc2c1c(=O)c1ccccc1n2C | 68.5 µM | > 100 µM | > 100 | > 100 µM | 39.4 µM | > 100 µM | > 100 | > 100 | > 100 µM | > 100 µM | > 100 µM | > 100 µM | – | – | – | – | – | – | –
COc1cc(C2SC(N)=Nc3c2c(C)nn3C(=O)c2ccccc2O)ccc1O (centres undefined) | > 10 µM | > 10 µM | > 10 | > 3.33 µM | > 3.75 µM | > 10 µM | > 10 | > 10 | > 10 µM | > 10 µM | > 10 µM | > 10 µM | – | – | – | – | – | – | –
Cc1ccc2c(c1)C(=O)N1CCC[C@H]1C=N2 | 22.6 µM | > 76.4 µM | > 55.6 | > 66.3 µM | > 100 µM | 35.2 µM | 33.2 | 37.6 | > 84.1 µM | 39.7 µM | > 93.1 µM | > 83.7 µM | – | – | – | – | – | – | –
COC1C(O)C(C)OC(OC2C(Oc3cccc4c(O)c5c(=O)oc6ccc(C)c7c(=O)oc(c34)c5c67)OC(C)C(O)C2O)C1O (centres undefined) | 14.4 µM and 5.06 µM | 63.6 µM and 34 µM | 13.8 | > 69.9 µM and 12.9 µM | 19.3 µM and 8.81 µM | 5.22 µM and 5.75 µM | 8.29 | 6.88 | 14.9 µM and 2.23 µM | 9.28 µM and 4.6 µM | 30.8 µM and 15.6 µM | 63.8 µM and 20.5 µM | 1.94 | 3.08 | 1.83 | 0.647 | 1.93 | 6.91 | 1.28
CCN(CC)CCCn1c(=O)c2ccccc2n2c3c(=O)n(C)c(=O)n(C)c3nc12 | 35 µM | 25.4 µM | 24 | 26.2 µM | 33.6 µM | 21.4 µM | 27.5 | 28 | 8.92 µM | 21.2 µM | 32.9 µM | 29.1 µM | – | – | – | – | – | – | –
C[C@]12Cc3cnn(-c4ccc(F)cc4)c3NC1CC[C@@H]1C2CC[C@@]2(C)C1CC[C@@H]2O (some centres undefined) | 32.6 µM | – | 3.81 | 28.5 µM | 24 µM | 23.7 µM | 20.8 | 21.8 | 16.3 µM | 18.7 µM | 30.5 µM | 13.6 µM | – | – | – | – | – | – | –
COc1cc(C(=O)O[C@@H]2[C@@H](OC(=O)c3cc(OC)c(OC)c(OC)c3)[C@@H](OC)O[C@@H]3CO[C@@H](c4ccccc4)O[C@@H]23)cc(OC)c1OC | > 100 µM | > 100 µM | > 100 | > 100 µM | > 100 µM | > 100 µM | > 100 | > 100 | > 100 µM | > 100 µM | > 100 µM | > 100 µM | – | – | – | – | – | – | –
O=C1CC(=O)NC(=NN2C(=O)/C(=C/c3ccccc3)N=C2c2ccccc2)N1 | > 100 µM | > 100 µM | > 100 | > 100 µM | > 100 µM | > 100 µM | > 100 | > 100 | > 100 µM | > 100 µM | > 100 µM | > 100 µM | – | – | – | – | – | – | –
Brc1c(C#CCC(c2ccccc2)(c2ccccc2)c2ccccc2)ccc(C#CCC(c2ccccc2)(c2ccccc2)c2ccccc2)c1Br | > 100 µM | > 100 µM | > 100 | > 100 µM | > 100 µM | > 100 µM | > 100 | > 100 | > 100 µM | > 100 µM | > 100 µM | > 100 µM | – | – | – | – | – | – | –
CC(C)OP(=O)(OC(C)C)/C(C#N)=C/c1ccco1 | > 100 µM | > 100 µM | > 100 | > 100 µM | > 100 µM | > 100 µM | > 100 | > 100 | > 100 µM | > 100 µM | > 100 µM | > 100 µM | – | – | – | – | – | – | –
Cc1ccc(C(=O)Nc2ccc(S(=O)(=O)O)c3cc(S(=O)(=O)O)cc(S(=O)(=O)O)c23)cc1NC(=S)Nc1cc(C(=O)Nc2ccc(S(=O)(=O)O)c3cc(S(=O)(=O)O)cc(S(=O)(=O)O)c23)ccc1C | > 75 µM | > 75 µM | > 75 | > 75 µM | > 75 µM | > 75 µM | > 75 | > 75 | > 75 µM | > 75 µM | > 75 µM | > 75 µM | – | – | – | – | – | – | –
CCOP(=O)(C/C=C/Cn1nc(Br)c(=O)[nH]c1=O)OCC | > 100 µM | > 100 µM | > 100 | > 100 µM | > 100 µM | > 100 µM | > 100 | > 100 | > 100 µM | > 100 µM | > 100 µM | > 100 µM | – | – | – | – | – | – | –
CCN(CC)CCNC(=O)c1ccc(I)cc1 | > 100 µM | > 100 µM | > 100 | > 100 µM | > 100 µM | > 100 µM | > 100 | > 100 | > 100 µM | > 100 µM | > 100 µM | > 100 µM | – | – | – | – | – | – | –
